Tests used:
iridoid synthase (CrISY) [1] = biological target: T1, iridoid synthase (CrISY) (Catharanthus roseus, UniProt K7WDL7, D87N); assay: co-crystal structure at […] Å; format: biochemical
iridoid synthase (CrISY) [2] = biological target: T1, iridoid synthase (CrISY); assay: co-crystal structure at […] Å; format: binding
[3] = biological target: T2, iridoid synthase (CrISY) G150A (Catharanthus roseus, UniProt K7WDL7, D87N/G150A); assay: co-crystal structure; format: binding
T2 sequence (K7WDL7 23-388 D87N/G150A): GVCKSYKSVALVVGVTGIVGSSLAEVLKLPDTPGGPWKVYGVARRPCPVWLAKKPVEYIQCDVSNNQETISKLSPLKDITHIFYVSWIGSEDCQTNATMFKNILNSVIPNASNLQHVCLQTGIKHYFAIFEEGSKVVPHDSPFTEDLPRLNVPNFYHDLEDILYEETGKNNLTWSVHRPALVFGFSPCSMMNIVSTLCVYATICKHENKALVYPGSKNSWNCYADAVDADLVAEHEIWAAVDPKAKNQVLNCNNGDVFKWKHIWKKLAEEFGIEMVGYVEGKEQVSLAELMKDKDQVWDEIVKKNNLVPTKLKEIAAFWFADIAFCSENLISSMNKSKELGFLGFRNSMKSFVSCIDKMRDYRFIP

T1 sequence (K7WDL7 23-388 D87N): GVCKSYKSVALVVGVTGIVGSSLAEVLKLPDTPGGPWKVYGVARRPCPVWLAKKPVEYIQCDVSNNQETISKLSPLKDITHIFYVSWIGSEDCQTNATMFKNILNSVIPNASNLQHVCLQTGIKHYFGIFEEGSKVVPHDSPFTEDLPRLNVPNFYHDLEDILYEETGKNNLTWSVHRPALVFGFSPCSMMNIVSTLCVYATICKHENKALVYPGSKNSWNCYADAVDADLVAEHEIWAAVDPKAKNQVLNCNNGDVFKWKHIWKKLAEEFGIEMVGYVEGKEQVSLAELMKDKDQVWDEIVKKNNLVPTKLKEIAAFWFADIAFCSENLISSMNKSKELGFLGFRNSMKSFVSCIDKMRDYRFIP

CC(C)=CCC/C(C)=C/C(=O)O [GEA, geranic acid]
Ki (iridoid synthase (CrISY) [1]): ~4 µM

NC(=O)c1ccc[n+]([C@@H]2O[C@H](COP(=O)(O)OP(=O)(O)OC[C@H]3O[C@@H](n4cnc5c(N)ncnc54)[C@H](OP(=O)(O)O)[C@@H]3O)[C@@H](O)[C@H]2O)c1 [NADP+]
co-crystal structure at 1.40 Å (iridoid synthase (CrISY) [2]): CrISY’s structure was solved in its apo form and with NADP^+ bound (PDB codes 5DCW and 5DCU, respectively) | co-crystal structure [3]: The structure of CrISY^G150A was solved with NADP^+ bound (PDB code 5DCY)
